Literature values, collected in patent US8524749B2, “Controlled release compositions of tizanidine” (ALZA Corporation, priority 2007, dated 2013).

Settings: doses of 0.5-0.7 g/kg alcohol; comparison data

## CCO [alcohol]
  Peak impairment in Power of Attention, decrement compared to baseline: about 150 msec
